Drawing on ChEMBL document CHEMBL1201861, “Genomics of Drug Sensitity in Cancer screening data, Wellcome Trust Sanger Institute”, this text covers IC50 for one molecule.

The subject of one test is NOMO-1. Nature of the test: cells. Format: functional, cell-based, Homo sapiens. Particulars: Homo sapiens, NOMO-1.
Description: SANGER: Inhibition of human NOMO-1 cell growth in a cell viability assay.
As usually defined, the IC50 is the concentration needed to halve the response being measured. On to `CC1(C)CCC(c2ccc(Cl)cc2)=C(CN2CCN(c3ccc(C(=O)NS(=O)(=O)c4ccc(N[C@H](CCN5CCOCC5)CSc5ccccc5)c(S(=O)(=O)C(F)(F)F)c4)cc3)CC2)C1` [NAVITOCLAX], for which the half-maximal inhibitory concentration (IC50) is more than 2000 nM.

Another test has as its system LB1047-RCC. As to the kind of experiment: cells. Format: functional, cell-based, Homo sapiens. Particulars: Homo sapiens, LB1047-RCC.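 Also: inhibition of cell growth, determined with a cell viability assay.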
Description: SANGER: Inhibition of human LB1047-RCC cell growth in a cell viability assay.
`CC1(C)CCC(c2ccc(Cl)cc2)=C(CN2CCN(c3ccc(C(=O)NS(=O)(=O)c4ccc(N[C@H](CCN5CCOCC5)CSc5ccccc5)c(S(=O)(=O)C(F)(F)F)c4)cc3)CC2)C1` [NAVITOCLAX] came in with an IC50 of more than 2000 nM.

Another test concerns RPMI-8226. Nature of the test: cells. Format: functional, cell-based, Homo sapiens. Particulars: Homo sapiens, RPMI-8226.
Description: SANGER: Inhibition of human RPMI-8226 cell growth in a cell viability assay.
As to `CC1(C)CCC(c2ccc(Cl)cc2)=C(CN2CCN(c3ccc(C(=O)NS(=O)(=O)c4ccc(N[C@H](CCN5CCOCC5)CSc5ccccc5)c(S(=O)(=O)C(F)(F)F)c4)cc3)CC2)C1` [NAVITOCLAX], inhibition was half-maximal at 457 nM (IC50).

The subject of the next test is RH-1. Nature of the test: cells. Format: functional, cell-based, Homo sapiens. The settings on record: Homo sapiens, RH-1.
Description: SANGER: Inhibition of human RH-1 cell growth in a cell viability assay.
Regarding `CC1(C)CCC(c2ccc(Cl)cc2)=C(CN2CCN(c3ccc(C(=O)NS(=O)(=O)c4ccc(N[C@H](CCN5CCOCC5)CSc5ccccc5)c(S(=O)(=O)C(F)(F)F)c4)cc3)CC2)C1` [NAVITOCLAX], the IC50 was more than 2000 nM.

A further test relates to P30-OHK. As to the kind of experiment: cells. Particulars: Homo sapiens, P30-OHK. The test is classed as functional, cell-based, Homo sapiens.
Description: SANGER: Inhibition of human P30-OHK cell growth in a cell viability assay.
The molecule `CC1(C)CCC(c2ccc(Cl)cc2)=C(CN2CCN(c3ccc(C(=O)NS(=O)(=O)c4ccc(N[C@H](CCN5CCOCC5)CSc5ccccc5)c(S(=O)(=O)C(F)(F)F)c4)cc3)CC2)C1` [NAVITOCLAX] came in with a half-maximal inhibitory concentration (IC50) of 1050 nM.

A further test deals with LU-139. Nature of the test: cells. The test is classed as functional, cell-based, Homo sapiens. Particulars: Homo sapiens, LU-139.
Description: SANGER: Inhibition of human LU-139 cell growth in a cell viability assay.
Take `CC1(C)CCC(c2ccc(Cl)cc2)=C(CN2CCN(c3ccc(C(=O)NS(=O)(=O)c4ccc(N[C@H](CCN5CCOCC5)CSc5ccccc5)c(S(=O)(=O)C(F)(F)F)c4)cc3)CC2)C1` [NAVITOCLAX]: the concentration for half-maximal inhibition (IC50) turned out to be 205 nM.

For the next test, the system named is COLO-668. As to the kind of experiment: cells. The settings on record: Homo sapiens, COLO-668. The test is classed as functional, cell-based, Homo sapiens.
Description: SANGER: Inhibition of human COLO-668 cell growth in a cell viability assay.
`CC1(C)CCC(c2ccc(Cl)cc2)=C(CN2CCN(c3ccc(C(=O)NS(=O)(=O)c4ccc(N[C@H](CCN5CCOCC5)CSc5ccccc5)c(S(=O)(=O)C(F)(F)F)c4)cc3)CC2)C1` [NAVITOCLAX] showed a concentration for half-maximal inhibition (IC50) of more than 2000 nM.

For a further test, the system named is ATN-1. As to the kind of experiment: cells. Format: functional, cell-based, Homo sapiens. Particulars: Homo sapiens, ATN-1.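 Also: growth inhibition of human ATN-1 cells, read out with a cell viability assay.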
Description: SANGER: Inhibition of human ATN-1 cell growth in a cell viability assay.
`CC1(C)CCC(c2ccc(Cl)cc2)=C(CN2CCN(c3ccc(C(=O)NS(=O)(=O)c4ccc(N[C@H](CCN5CCOCC5)CSc5ccccc5)c(S(=O)(=O)C(F)(F)F)c4)cc3)CC2)C1` [NAVITOCLAX] yielded an IC50 of 47.3 nM.

For a further test, the system named is HCC1187. Nature of the test: cells. The test is classed as functional, cell-based, Homo sapiens. The settings on record: Homo sapiens, HCC1187.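 Also: growth inhibition of HCC1187 cells, read out with a cell viability assay.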
Description: SANGER: Inhibition of human HCC1187 cell growth in a cell viability assay.
As for `CC1(C)CCC(c2ccc(Cl)cc2)=C(CN2CCN(c3ccc(C(=O)NS(=O)(=O)c4ccc(N[C@H](CCN5CCOCC5)CSc5ccccc5)c(S(=O)(=O)C(F)(F)F)c4)cc3)CC2)C1` [NAVITOCLAX], the 50% inhibitory concentration (IC50) is more than 2000 nM.

The next test deals with NCI-H1355. Nature of the test: cells. The test is classed as functional, cell-based, Homo sapiens. Particulars: Homo sapiens, NCI-H1355.
Description: SANGER: Inhibition of human NCI-H1355 cell growth in a cell viability assay.
For `CC1(C)CCC(c2ccc(Cl)cc2)=C(CN2CCN(c3ccc(C(=O)NS(=O)(=O)c4ccc(N[C@H](CCN5CCOCC5)CSc5ccccc5)c(S(=O)(=O)C(F)(F)F)c4)cc3)CC2)C1` [NAVITOCLAX], the IC50 is more than 2000 nM.

A further test deals with LNCaP-Clone-FGC. As to the kind of experiment: cells. The test is classed as functional, cell-based, Homo sapiens. The settings on record: Homo sapiens, LNCaP-Clone-FGC.
Description: SANGER: Inhibition of human LNCaP-Clone-FGC cell growth in a cell viability assay.
In turn, `CC1(C)CCC(c2ccc(Cl)cc2)=C(CN2CCN(c3ccc(C(=O)NS(=O)(=O)c4ccc(N[C@H](CCN5CCOCC5)CSc5ccccc5)c(S(=O)(=O)C(F)(F)F)c4)cc3)CC2)C1` [NAVITOCLAX] gave an IC50 of more than 2000 nM.

In the next test the test system is SF-268. As to the kind of experiment: cells. The test is classed as functional, cell-based, Homo sapiens. Particulars: Homo sapiens, SF-268.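 Also: growth inhibition of SF-268 cells determined with a cell viability assay.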
Description: SANGER: Inhibition of human SF268 cell growth in a cell viability assay.
In the case of `CC1(C)CCC(c2ccc(Cl)cc2)=C(CN2CCN(c3ccc(C(=O)NS(=O)(=O)c4ccc(N[C@H](CCN5CCOCC5)CSc5ccccc5)c(S(=O)(=O)C(F)(F)F)c4)cc3)CC2)C1` [NAVITOCLAX], the IC50 was more than 2000 nM.

The test system of another test is HEL. As to the kind of experiment: cells. Format: functional, cell-based, Homo sapiens. Particulars: Homo sapiens, HEL.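 Also: growth inhibition of HEL cells, read out with a cell viability assay.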
Description: SANGER: Inhibition of human HEL cell growth in a cell viability assay.
For the molecule `CC1(C)CCC(c2ccc(Cl)cc2)=C(CN2CCN(c3ccc(C(=O)NS(=O)(=O)c4ccc(N[C@H](CCN5CCOCC5)CSc5ccccc5)c(S(=O)(=O)C(F)(F)F)c4)cc3)CC2)C1` [NAVITOCLAX], inhibition was half-maximal at 1310 nM (IC50).

For another test, the system named is CAS-1. As to the kind of experiment: cells. Particulars: Homo sapiens, CAS-1. The test is classed as functional, cell-based, Homo sapiens.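 Also: growth inhibition of CAS-1 cells, measured with a cell viability assay.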
Description: SANGER: Inhibition of human CAS-1 cell growth in a cell viability assay.
On to `CC1(C)CCC(c2ccc(Cl)cc2)=C(CN2CCN(c3ccc(C(=O)NS(=O)(=O)c4ccc(N[C@H](CCN5CCOCC5)CSc5ccccc5)c(S(=O)(=O)C(F)(F)F)c4)cc3)CC2)C1` [NAVITOCLAX], for which the IC50 is more than 2000 nM.

A further test concerns GCIY. As to the kind of experiment: cells. Format: functional, cell-based, Homo sapiens. Particulars: Homo sapiens, GCIY.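 Also: growth inhibition of the human GCIY cell line, read out by a cell viability assay.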
Description: SANGER: Inhibition of human GCIY cell growth in a cell viability assay.
In turn, `CC1(C)CCC(c2ccc(Cl)cc2)=C(CN2CCN(c3ccc(C(=O)NS(=O)(=O)c4ccc(N[C@H](CCN5CCOCC5)CSc5ccccc5)c(S(=O)(=O)C(F)(F)F)c4)cc3)CC2)C1` [NAVITOCLAX] gave an IC50 of more than 2000 nM.

A further test deals with ES7. Nature of the test: cells. Format: functional, cell-based, Homo sapiens. Particulars: Homo sapiens, ES7.
Description: SANGER: Inhibition of human ES7 cell growth in a cell viability assay.
`CC1(C)CCC(c2ccc(Cl)cc2)=C(CN2CCN(c3ccc(C(=O)NS(=O)(=O)c4ccc(N[C@H](CCN5CCOCC5)CSc5ccccc5)c(S(=O)(=O)C(F)(F)F)c4)cc3)CC2)C1` [NAVITOCLAX] came in with an IC50 of 1280 nM.

A further test concerns TE-8. As to the kind of experiment: cells. Format: functional, cell-based, Homo sapiens. Particulars: Homo sapiens, TE-8.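 Also: growth inhibition of TE-8 cells, measured with a cell viability readout.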
Description: SANGER: Inhibition of human TE-8 cell growth in a cell viability assay.
As for `CC1(C)CCC(c2ccc(Cl)cc2)=C(CN2CCN(c3ccc(C(=O)NS(=O)(=O)c4ccc(N[C@H](CCN5CCOCC5)CSc5ccccc5)c(S(=O)(=O)C(F)(F)F)c4)cc3)CC2)C1` [NAVITOCLAX], the concentration for half-maximal inhibition (IC50) is more than 2000 nM.

The subject of another test is KNS-42. Nature of the test: cells. Particulars: Homo sapiens. The test is classed as functional, cell-based.
Description: SANGER: Inhibition of human KNS-42 cell growth in a cell viability assay.
`CC1(C)CCC(c2ccc(Cl)cc2)=C(CN2CCN(c3ccc(C(=O)NS(=O)(=O)c4ccc(N[C@H](CCN5CCOCC5)CSc5ccccc5)c(S(=O)(=O)C(F)(F)F)c4)cc3)CC2)C1` [NAVITOCLAX] displayed an IC50 of more than 2000 nM.

For another test, the system named is CTV-1. Nature of the test: cells. Format: functional, cell-based, Homo sapiens. Particulars: Homo sapiens, CTV-1.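 Also: growth inhibition of the cell line, read out with a cell viability assay.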
Description: SANGER: Inhibition of human CTV-1 cell growth in a cell viability assay.
Molecule `CC1(C)CCC(c2ccc(Cl)cc2)=C(CN2CCN(c3ccc(C(=O)NS(=O)(=O)c4ccc(N[C@H](CCN5CCOCC5)CSc5ccccc5)c(S(=O)(=O)C(F)(F)F)c4)cc3)CC2)C1` [NAVITOCLAX] showed an IC50 of more than 2000 nM.

Another test concerns HAL-01. Nature of the test: cells. Format: functional, cell-based, Homo sapiens. Particulars: Homo sapiens, HAL-01.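 Also: growth inhibition of human HAL-01 cells, read out with a cell viability assay.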
Description: SANGER: Inhibition of human HAL-01 cell growth in a cell viability assay.
In turn, `CC1(C)CCC(c2ccc(Cl)cc2)=C(CN2CCN(c3ccc(C(=O)NS(=O)(=O)c4ccc(N[C@H](CCN5CCOCC5)CSc5ccccc5)c(S(=O)(=O)C(F)(F)F)c4)cc3)CC2)C1` [NAVITOCLAX] returned a 50% inhibitory concentration (IC50) of 725 nM.

The subject of a further test is CW-2. As to the kind of experiment: cells. Format: functional, cell-based, Homo sapiens. The settings on record: Homo sapiens, CW-2.
Description: SANGER: Inhibition of human CW-2 cell growth in a cell viability assay.
`CC1(C)CCC(c2ccc(Cl)cc2)=C(CN2CCN(c3ccc(C(=O)NS(=O)(=O)c4ccc(N[C@H](CCN5CCOCC5)CSc5ccccc5)c(S(=O)(=O)C(F)(F)F)c4)cc3)CC2)C1` [NAVITOCLAX] had an IC50 of more than 2000 nM.

The subject of another test is EW-18. As to the kind of experiment: cells. The test is classed as functional, cell-based, Homo sapiens. The settings on record: Homo sapiens, EW-18; read-out: IC50.
Description: SANGER: Inhibition of human EW-18 cell growth in a cell viability assay.
Consider `CC1(C)CCC(c2ccc(Cl)cc2)=C(CN2CCN(c3ccc(C(=O)NS(=O)(=O)c4ccc(N[C@H](CCN5CCOCC5)CSc5ccccc5)c(S(=O)(=O)C(F)(F)F)c4)cc3)CC2)C1` [NAVITOCLAX], for which the 50% inhibitory concentration (IC50) stood at 68.4 nM.

The subject of a further test is HCC2218. Nature of the test: cells. The test is classed as functional, cell-based, Homo sapiens. The settings on record: Homo sapiens, HCC2218.
Description: SANGER: Inhibition of human HCC2218 cell growth in a cell viability assay.
`CC1(C)CCC(c2ccc(Cl)cc2)=C(CN2CCN(c3ccc(C(=O)NS(=O)(=O)c4ccc(N[C@H](CCN5CCOCC5)CSc5ccccc5)c(S(=O)(=O)C(F)(F)F)c4)cc3)CC2)C1` [NAVITOCLAX] registered an IC50 of more than 2000 nM.

The test system of another test is NEC8. As to the kind of experiment: cells. Format: functional, cell-based, Homo sapiens. The settings on record: Homo sapiens, NEC8.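 Also: growth inhibition of human NEC8 cells, read out by a cell viability assay.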
Description: SANGER: Inhibition of human NEC8 cell growth in a cell viability assay.
Consider `CC1(C)CCC(c2ccc(Cl)cc2)=C(CN2CCN(c3ccc(C(=O)NS(=O)(=O)c4ccc(N[C@H](CCN5CCOCC5)CSc5ccccc5)c(S(=O)(=O)C(F)(F)F)c4)cc3)CC2)C1` [NAVITOCLAX], for which the concentration for half-maximal inhibition (IC50) is more than 2000 nM.
